# Results: patent publication US20170057955A1, “Pyridopyrimidinone Compounds for Modulating the Catalytic Activity of Histone Lysine Demethylases (KDMs)” (Dong-A Socio Holdings Co., Ltd., priority 2015, published 2017)
# Target: T1, Recombinant human JARID1B/KDM5B (Homo sapiens, UniProt Q9UGL1)
# T1 construct: purchased Active Motif 31432; host or cells: Sf9 insect cells
# Assay: LANCE Ultra TR-FRET JARID1B (KDM5B) demethylase inhibition assay
# Format: biochemical
# Conditions: 0.1 uM of test-compounds, FLAG-JARID1B, 500 nM biotinylated H3K4me3 peptide substrate, 30 min at room temperature
# Summary of the method: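 FLAG-tagged JARID1B from Sf9 cells, pre-incubated 5 min with 0.1 uM compound (1% DMSO), then 500 nM biotinylated H3K4me3 peptide, 500 uM 2-OG, 25 uM Fe(II), 2 mM ascorbate in pH 7.5 Hepes buffer. After 30 min at room temperature, H3K4me2/1 product detected by TR-FRET (665/590 nm ratio).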
# T1 sequence (Q9UGL1 whole entry): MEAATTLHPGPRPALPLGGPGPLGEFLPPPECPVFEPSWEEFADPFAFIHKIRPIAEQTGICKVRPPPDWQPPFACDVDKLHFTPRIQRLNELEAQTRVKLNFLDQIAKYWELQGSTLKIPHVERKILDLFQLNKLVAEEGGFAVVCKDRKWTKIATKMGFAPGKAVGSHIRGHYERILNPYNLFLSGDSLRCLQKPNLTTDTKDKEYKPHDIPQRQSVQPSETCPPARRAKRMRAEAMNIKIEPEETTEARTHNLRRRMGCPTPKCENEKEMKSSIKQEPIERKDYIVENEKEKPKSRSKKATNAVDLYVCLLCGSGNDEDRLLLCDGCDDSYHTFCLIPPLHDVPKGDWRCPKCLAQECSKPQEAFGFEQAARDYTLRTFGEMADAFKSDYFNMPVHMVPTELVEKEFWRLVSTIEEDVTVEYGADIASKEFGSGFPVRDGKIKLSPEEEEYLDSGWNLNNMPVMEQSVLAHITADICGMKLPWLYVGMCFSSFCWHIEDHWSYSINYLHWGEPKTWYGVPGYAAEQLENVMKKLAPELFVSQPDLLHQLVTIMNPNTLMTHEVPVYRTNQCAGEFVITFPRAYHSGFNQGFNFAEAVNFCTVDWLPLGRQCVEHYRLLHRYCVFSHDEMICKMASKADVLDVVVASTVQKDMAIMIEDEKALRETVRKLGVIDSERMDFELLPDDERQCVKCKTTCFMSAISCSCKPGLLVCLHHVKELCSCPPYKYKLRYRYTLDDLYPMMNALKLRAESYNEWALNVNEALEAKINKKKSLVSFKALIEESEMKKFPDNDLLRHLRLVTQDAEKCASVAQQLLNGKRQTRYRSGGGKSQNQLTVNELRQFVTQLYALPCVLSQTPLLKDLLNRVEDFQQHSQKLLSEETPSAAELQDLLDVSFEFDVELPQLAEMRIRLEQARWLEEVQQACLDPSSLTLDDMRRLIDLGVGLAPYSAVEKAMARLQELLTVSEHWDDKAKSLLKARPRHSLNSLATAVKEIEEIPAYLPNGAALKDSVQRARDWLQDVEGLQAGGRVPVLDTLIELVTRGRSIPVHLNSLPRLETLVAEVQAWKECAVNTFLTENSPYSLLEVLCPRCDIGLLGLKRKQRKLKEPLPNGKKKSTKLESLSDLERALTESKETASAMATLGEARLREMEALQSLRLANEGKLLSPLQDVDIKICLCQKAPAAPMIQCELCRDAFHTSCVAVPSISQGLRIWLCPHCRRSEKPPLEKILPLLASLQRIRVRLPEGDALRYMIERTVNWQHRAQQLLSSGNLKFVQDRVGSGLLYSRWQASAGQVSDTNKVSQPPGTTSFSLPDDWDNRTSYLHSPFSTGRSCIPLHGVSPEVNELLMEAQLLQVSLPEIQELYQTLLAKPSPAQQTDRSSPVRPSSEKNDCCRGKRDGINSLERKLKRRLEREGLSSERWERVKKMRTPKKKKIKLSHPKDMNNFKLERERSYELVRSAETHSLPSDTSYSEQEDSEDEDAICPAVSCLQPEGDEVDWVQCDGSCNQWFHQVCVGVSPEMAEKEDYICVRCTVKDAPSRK
row,Compound,inhibition at 0.1 µM
1,"CN1CCCC1CCNc1nc(-c2nccc3c(=O)[nH]c(COc4ccc(F)c(Cl)c4)nc23)cs1 (stereo not shown) [Compound 92, 2-((3-chloro-4-fluorophenoxy)methyl)-8-(2-((2-(1-methylpyrrolidin-2-yl)ethyl)amino)thiazol-4-yl)pyrido[3,4-d]pyrimidin-4(3H)-one]",≥ 50%
2,"O=c1[nH]c(COc2ccc(F)c(Cl)c2)nc2c(-c3csc(NC4CCNCC4)n3)nccc12 [Compound 93, 2-((3-chloro-4-fluorophenoxy)methyl)-8-(2-(piperidin-4-ylamino)thiazol-4-yl)pyrido[3,4-d]pyrimidin-4(3H)-one]",≥ 50%
3,"CN1CCC(Nc2nc(-c3nccc4c(=O)[nH]c(COc5ccc(F)c(Cl)c5)nc34)cs2)CC1 [Compound 94, 2-((3-chloro-4-fluorophenoxy)methyl)-8-(2-((1-methylpiperidin-4-yl)amino)thiazol-4-yl)pyrido[3,4-d]pyrimidin-4(3H)-one]",≥ 50%
4,"CCC(O)CNc1nc(-c2nccc3c(=O)[nH]c(COc4ccc(F)c(Cl)c4)nc23)cs1 (stereo not shown) [Compound 95, 2-((3-chloro-4-fluorophenoxy)methyl)-8-(2-((2-hydroxybutyl)amino)thiazol-4-yl)pyrido[3,4-d]pyrimidin-4(3H)-one]",20 to 50%
5,"O=c1[nH]c(COc2ccc(F)c(Cl)c2)nc2c(-c3csc(NCC4CCN(Cc5ccccc5)CC4)n3)nccc12 [Compound 96, 8-(2-(((1-benzylpiperidin-4-yl)methyl)amino)thiazol-4-yl)-2-((3-chloro-4-fluorophenoxy)methyl) pyrido[3,4-d]pyrimidin-4(3H)-one]",< 20%
6,"CC(C)N1CCC(CNc2nc(-c3nccc4c(=O)[nH]c(COc5ccc(F)c(Cl)c5)nc34)cs2)CC1 [Compound 97, 2-((3-chloro-4-fluorophenoxy)methyl)-8-(2-(((1-isopropylpiperidin-4-yl)methyl)amino)thiazol-4-yl)pyrido[3,4-d]pyrimidin-4(3H)-one]",20 to 50%
7,"O=c1[nH]c(COc2ccc(F)c(Cl)c2)nc2c(-c3csc(NCC4CCN(C5CCCC5)CC4)n3)nccc12 [Compound 98, 2-((3-chloro-4-fluorophenoxy)methyl)-8-(2-(((1-cyclopentylpiperidin-4-yl)methyl)amino)thiazol-4-yl)pyrido[3,4-d]pyrimidin-4(3H)-one]",20 to 50%
8,"O=c1[nH]c(COc2ccc(F)c(Cl)c2)nc2c(-c3csc(NCC4CCNCC4)n3)nccc12 [Compound 99, 2-((3-chloro-4-fluorophenoxy)methyl)-8-(2-((piperidin-4-ylmethyl)amino)thiazol-4-yl)pyrido[3,4-d]pyrimidin-4(3H)-one]",20 to 50%
9,"O=c1[nH]c(COc2ccc(F)c(Cl)c2)nc2c(-c3csc(NCC4CCN(CCO)CC4)n3)nccc12 [Compound 100, 2-((3-chloro-4-fluorophenoxy)methyl)-8-(2-(((1-(2-hydroxyethyl)piperidin-4-yl)methyl)amino)thiazol-4-yl)pyrido[3,4-d]pyrimidin-4(3H)-one]",20 to 50%
10,"COCCN1CCC(CNc2nc(-c3nccc4c(=O)[nH]c(COc5ccc(F)c(Cl)c5)nc34)cs2)CC1 [Compound 101, 2-((3-chloro-4-fluorophenoxy)methyl)-8-(2-(((1-(2-methoxyethyl)piperidin-4-yl)methyl)amino)thiazol-4-yl)pyrido[3,4-d]pyrimidin-4(3H)-one]",20 to 50%
11,"O=c1[nH]c(COc2ccc(F)c(Cl)c2)nc2c(-c3csc(NC4CCN(Cc5ccccc5)CC4)n3)nccc12 [Compound 102, 8-(2-((1-benzylpiperidin-4-yl)amino)thiazol-4-yl)-2-((3-chloro-4-fluorophenoxy)methyl) pyrido[3,4-d]pyrimidin-4(3H)-one]",≥ 50%

# Other lines, results leading:
row,inhibition at 0.1 µM,Compound
1,< 20%,"Cc1nc(-c2nccc3c(=O)[nH]c(COc4ccc(F)c(Cl)c4)nc23)cs1 [Compound 103, 2-((3-chloro-4-fluorophenoxy)methyl)-8-(2-methylthiazol-4-yl)pyrido[3,4-d]pyrimidin-4(3H)-one]"
2,20 to 50%,"Nc1nc(-c2nccc3c(=O)[nH]c(COc4ccc(F)c(Cl)c4)nc23)cs1 [Compound 104, 8-(2-aminothiazol-4-yl)-2-((3-chloro-4-fluorophenoxy)methyl) pyrido[3,4-d]pyrimidin-4(3H)-one]"
3,< 20%,"CCN(CC)c1nc(-c2nccc3c(=O)[nH]c(COc4ccc(F)c(Cl)c4)nc23)cs1 [Compound 105, 2-((3-chloro-4-fluorophenoxy)methyl)-8-(2-(diethylamino)thiazol-4-yl)pyrido[3,4-d]pyrimidin-4(3H)-one]"
4,20 to 50%,"O=c1[nH]c(COc2ccc(F)c(Cl)c2)nc2c(-c3cscn3)nccc12 [Compound 106, 2-((3-chloro-4-fluorophenoxy)methyl)-8-(thiazol-4-yl)pyrido[3,4-d]pyrimidin-4(3H)-one]"
5,20 to 50%,"O=c1[nH]c(COc2ccc(F)c(Cl)c2)nc2c(-c3csc(NC4CCN(Cc5ccccc5)C4)n3)nccc12 (stereo not shown) [Compound 107, 8-(2-((1-benzylpyrrolidin-3-yl)amino)thiazol-4-yl)-2-((3-chloro-4-fluorophenoxy)methyl) pyrido[3,4-d]pyrimidin-4(3H)-one]"
6,< 20%,"O=c1[nH]c(COc2ccc(F)c(Cl)c2)nc2c(-c3csc(NCCc4ccc(Cl)c(Cl)c4)n3)nccc12 [Compound 108, 2-((3-chloro-4-fluorophenoxy)methyl)-8-(2-((3,4-dichlorophenethyl)amino)thiazol-4-yl)pyrido[3,4-d]pyrimidin-4(3H)-one]"
7,< 20%,"O=c1[nH]c(COc2ccc(F)c(Cl)c2)nc2c(-c3csc(NCCCc4ccccc4Cl)n3)nccc12 [Compound 109, 2-((3-chloro-4-fluorophenoxy)methyl)-8-(2-((3-(2-chlorophenyl)propyl)amino)thiazol-4-yl)pyrido[3,4-d]pyrimidin-4(3H)-one]"
8,< 20%,"O=c1[nH]c(COc2ccc(F)c(Cl)c2)nc2c(-c3csc(NCCc4ccccc4Oc4ccccc4)n3)nccc12 [Compound 110, 2-((3-chloro-4-fluorophenoxy)methyl)-8-(2-((2-phenoxyphenethyl)amino)thiazol-4-yl)pyrido[3,4-d]pyrimidin-4(3H)-one]"
9,20 to 50%,"O=c1[nH]c(COc2ccc(F)c(Cl)c2)nc2c(-c3csc(NCC(O)c4ccncc4)n3)nccc12 (stereo not shown) [Compound 111, 2-((3-chloro-4-fluorophenoxy)methyl)-8-(2-((2-hydroxy-2-(pyridin-4-yl)ethyl)amino)thiazol-4-yl)pyrido[3,4-d]pyrimidin-4(3H)-one]"
10,< 20%,"Cc1ccc(CCNc2nc(-c3nccc4c(=O)[nH]c(COc5ccc(F)c(Cl)c5)nc34)cs2)cc1C [Compound 112, 2-((3-chloro-4-fluorophenoxy)methyl)-8-(2-((3,4-dimethylphenethyl)amino)thiazol-4-yl)pyrido[3,4-d]pyrimidin-4(3H)-one]"
11,≥ 50%,"O=c1[nH]c(COc2ccc(F)c(Cl)c2)nc2c(-c3csc(NCC(O)CN4CCNCC4)n3)nccc12 (stereo not shown) [Compound 113, 2-((3-chloro-4-fluorophenoxy)methyl)-8-(2-((2-hydroxy-3-(piperazin-1-yl)propyl)amino)thiazol-4-yl)pyrido[3,4-d]pyrimidin-4(3H)-one]"
